Earlier results as cited in patent US20200179438A1, “BLOOD GLUCOSE SPIKE SUPPRESSOR, FOOD PRODUCT, AND METHOD FOR PRODUCING BLOOD GLUCOSE SPIKE SUPPRESSOR” (priority 2017, published 2020).

Conditions: for time until HB purity decreases after its increase: oral administration

Row | SMILES | time until HB purity decreases after its increase | HB purity in the blood after oral administration (oral, reached in several minutes)
1 | C[C@@H](O)CC(=O)O [HB, (R)-3-hydroxybutyric acid] | within several hours | –
2 | C[C@@H](O)CCOC(=O)C[C@@H](C)O [KE] | within several hours | several millimolar
